{
  "source": "patent US5393897A",
  "about": "“Isolation and structure of spongistatins 5,7,8 and 9” (Arizona Board of Regents acting on behalf of Arizona State …, priority 1993, dated 1995)",
  "experiment_in_all_cases": "NCI cell line panel",
  "type_in_all_cases": "cell-based",
  "key": {"[1]": {"test_system": "UACC-257", "details": "Homo sapiens, Melanoma, read-out: Log10 GI50 (converted)", "source_text": "(§1) Only two hundred years ago, many diseases ravaged humankind. Many of these diseases now have been controlled or eradicated. In the development of the means to treat or control these diseases, work with the appropriate common experimental animals was of critical importance. With the various types of cancers, and with the HIV virus, such work is presently ongoing. The research for the treatment of various types of cancer is coordinated in the United States by the National Cancer Institute (NCI). NCI, as a government entity, has been charged with assisting anti-cancer research. To establish whether a substance has anti-cancer activity, NCI has established a variety of protocols, one of which involves testing the candidate substance against a cell line panel containing 60 human tumor cell lines. This protocol has been verified and is generally accepted throughout the scientific community. This protocol and the established statistical means of evaluating the results obtained therefrom have been fully described in the literature. See Principles & Practice of Oncology PPO Updates, Volume 3, Number 10, October 1989, by Michael R. Boyd, M.D., Ph.D., for an in depth description of the test protocol. The statistical analysis is explained in \"Display and Analysis of Patterns of Differential Activity of Drugs Against Human Tumor Cell Lines: Development of Means Graph and COMPARE Algorithm\" Journal of the National Cancer Institute Reports Vol. 81, No. 14, Pg. 1088, Jul. 14, 1989, by K. D. Paull et al. Both of these references are incorporated herein by this reference thereto. The effectiveness and validity of the NCI in vitro protocol continues to be verified."}, "[2]": {"test_system": "HT29", "details": "Homo sapiens, HT-29; Colon Cancer; read-out: Log10 GI50 (converted)", "source_text": "as §1"}, "[3]": {"test_system": "M14", "details": "Homo sapiens, Melanoma, read-out: Log10 GI50 (converted)", "source_text": "as §1"}, "[4]": {"test_system": "SK-MEL-2", "details": "Homo sapiens, Melanoma, read-out: Log10 GI50 (converted)", "source_text": "as §1"}, "[5]": {"test_system": "MALME-3M", "details": "Homo sapiens, read-out: Log10 GI50 (converted)", "source_text": "as §1"}, "[6]": {"test_system": "SK-MEL-5", "details": "Homo sapiens, Melanoma, read-out: Log10 GI50 (converted)", "source_text": "as §1"}},
  "data": [
    {"smiles": "C=C/C=C/C(O)CC(=C)CC1OC2C(C)C(OC(=O)CC3CC(O)CC4(CC(C)(O)CC(C=C5COC(C(C)C(=O)CC6CC(OC)CC7(CC(O)CC(/C=C\\CCCC8OC(O)(CC(O)C8C)C2O)O7)O6)C5C)O4)O3)C1O", "note": "(stereo not drawn) [spongistatin 7]", "values": [
      {"measurement": "GI50", "setting": "[1]", "result": 14.1, "unit": "nM"},
      {"measurement": "GI50", "setting": "[2]", "result": 1.51, "unit": "nM"},
      {"measurement": "GI50", "setting": "[3]", "result": 0.49, "unit": "nM"},
      {"measurement": "GI50", "setting": "[4]", "result": 0.347, "unit": "nM"},
      {"measurement": "GI50", "setting": "[5]", "result": 0.398, "unit": "nM"},
      {"measurement": "GI50", "setting": "[6]", "result": 0.0851, "unit": "nM"}
    ]}
  ]
}
